Assays:
Format in all cases: ADME
Design in all cases: dose 2 uM, timepoint 0, 1, 2, 4, 6, 8, 12, 18, 24 hours
Conditions in all cases: 2 µM
[1] = (§1) The drug is tested on the gut metagenome community of MV03 with ENA study accession number: PRJEB31790 and ENA sample accession number: SAMEA5537484 for biotransformation. The drug concentrations were measured over 9 timepoints collected between 0 and 24 hours of incubation by liquid-chromatography-coupled mass spectrometry (LC–MS)
[2] = as §1, with “MV22” for “MV03”, “SAMEA5537503” for “SAMEA5537484”
[3] = as §1, with “MV24” for “MV03”, “SAMEA5537505” for “SAMEA5537484”
[4] = as §1, with “MV09” for “MV03”, “SAMEA5537490” for “SAMEA5537484”
[5] = as §1, with “MV15” for “MV03”, “SAMEA5537496” for “SAMEA5537484”
[6] = as §1, with “MV02” for “MV03”, “SAMEA5537483” for “SAMEA5537484”
[7] = as §1, with “MV07” for “MV03”, “SAMEA5537488” for “SAMEA5537484”
[8] = as §1, with “MV04” for “MV03”, “SAMEA5537485” for “SAMEA5537484”
[9] = as §1, with “MV25” for “MV03”, “SAMEA5537506” for “SAMEA5537484”
[10] = as §1, with “MV23” for “MV03”, “SAMEA5537504” for “SAMEA5537484”
[11] = as §1, with “MV18” for “MV03”, “SAMEA5537499” for “SAMEA5537484”
[12] = as §1, with “MV14” for “MV03”, “SAMEA5537495” for “SAMEA5537484”
[13] = as §1, with “MV28” for “MV03”, “SAMEA5537509” for “SAMEA5537484”
[14] = as §1, with “MV21” for “MV03”, “SAMEA5537502” for “SAMEA5537484”
[15] = as §1, with “MV26” for “MV03”, “SAMEA5537507” for “SAMEA5537484”
[16] = as §1, with “MV17” for “MV03”, “SAMEA5537498” for “SAMEA5537484”

## C[C@@H]1C[C@H]2[C@@H]3CCC4=CC(=O)C=C[C@]4(C)[C@@]3(F)[C@@H](O)C[C@]2(C)[C@@]1(O)C(=O)CO [DEXAMETHASONE]
[1]
  Bacterial Biotransformation: Compound metabolized
[2]
  Bacterial Biotransformation: Compound NOT metabolized
[3]
  Bacterial Biotransformation: Compound metabolized
[4]
  Bacterial Biotransformation: Compound metabolized
[5]
  Bacterial Biotransformation: Compound NOT metabolized
[6]
  Bacterial Biotransformation: Compound NOT metabolized
[7]
  Bacterial Biotransformation: Compound NOT metabolized
[8]
  Bacterial Biotransformation: Compound NOT metabolized
[9]
  Bacterial Biotransformation: Compound NOT metabolized
[10]
  Bacterial Biotransformation: Compound NOT metabolized
[11]
  Bacterial Biotransformation: Compound NOT metabolized
[12]
  Bacterial Biotransformation: Compound NOT metabolized
[13]
  Bacterial Biotransformation: Compound NOT metabolized
[14]
  Bacterial Biotransformation: Compound NOT metabolized
[15]
  Bacterial Biotransformation: Compound NOT metabolized
[16]
  Bacterial Biotransformation: Compound NOT metabolized

Reference: ChEMBL document CHEMBL5303573, “Mapping human microbiome drug metabolism by gut bacteria and their genes” (Nature, 2019)
